Experiment in all cases: NCI-60 cell line screen, 48 h
For test [1], the system named is ACHN renal.
Test [2] concerns CCRF-CEM leukemia.
Test [3] relates to KM20L2 colon.
Test [4] has as its system LOX IMVI melanoma.
Test [5] relates to OVCAR-8 ovarian.
Test [6] relates to RPMI-8226 leukemia.
The subject of test [7] is SF-295 CNS.
Test [8] has as its system SW-620 colon.
For test [9], the system named is UACC-257 melanoma.
Test [10] relates to M19-MEL melanoma.

The record followed here is PubChem BioAssay (NCI).

Where “and” joins values, the source holds several entries; their conditions need not be identical. Equal values may be shown once.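 How tested: cells in 96-well plates exposed to compound for 48 hours at five concentrations. At the GI50, growth is halved. TGI marks complete inhibition of growth.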

Take `COc1cc(C(=O)CC2(O)C(=O)Nc3c(Cl)cc(Cl)cc32)ccc1O` (centres undefined): the TGI in test [1], in test [2], in test [3], in test [4], in test [5] and in [6] was greater than 100 µM in each case. The TGI in test [7], in test [8] and in [9] was greater than 100 µM in each case.
Consider `Cc1ccc(C2=C(c3ccccc3)C(Br)(c3ccccc3)C(c3ccccc3)=C2c2ccc(C)cc2)cc1`, for which the TGI in test [1], in test [2], in test [3], in test [10], in test [5] and in test [6] was greater than 100 µM each time. Further, the TGI in test [7], in test [8] and in test [9] was greater than 100 µM each time.
As for `C[C@@H]1C[C@@]2(O[C@@H]2C)C(=O)O[C@@H]2CCN3CC=C(COC(=O)[C@]1(C)O)[C@H]23`, the TGI in [1], in [2], in [4], in [5], in test [6] and in test [7] was greater than 100 µM in each case. The TGI in test [8] and in test [9] was greater than 100 µM throughout.
Take `Oc1ccc(N=Nc2ccc(N=Nc3ccccc3)cc2)cc1`: the GI50 was 1.49 µM in test [1]; 0.379 µM in test [2]; 0.285 µM in test [4]; 3.2 µM in test [5]; 2.15 µM in test [6]; 2.32 µM in test [7]. Moreover, the GI50 in test [8] was 1.51 µM; in [9], 4.23 µM. The TGI in test [1] came out at 5.59 µM; in test [2] it was 14 µM; in [4], 1.76 µM; in test [5] it was 24.2 µM; in test [6], 16 µM; in test [7], 10.1 µM. In addition, the TGI in test [8] is 13.9 µM; in test [9] it was 17 µM.
Consider `O=C1CCCC1NC(=O)C(F)(F)F` (centres undefined), for which the TGI in test [1], in test [2], in [10], in test [5], in test [7] and in test [8] was greater than 100 µM throughout. Besides, the TGI in [9] is greater than 100 µM.
In the case of `COc1ccc2c(c1)OC(N)=C(C#N)C2c1ccc(F)cc1` (centres undefined), the GI50 in [1] is 6.35 µM; in test [2] it was 2.31 µM; in test [4], 1.98 µM; in test [5], 4.49 µM; in test [6], 2.43 µM; in test [7] it was 1.96 µM. Also, the GI50 was 0.533 µM in test [8] and 24.5 µM in test [9]. The TGI in [1] is greater than 100 µM; in test [2], greater than 100 µM; in test [4], greater than 100 µM; in [5], greater than 100 µM; in test [6], 19.9 µM; in test [7], 37.2 µM. Besides, the TGI in test [8] and in test [9] was greater than 100 µM in each case.
In the case of `CCCCCN(CCCCC)CC(O)c1cc2c(c3ccccc13)CCCC2` (centres undefined), the GI50 in [1] was 5.03 µM and 8.43 µM; in test [2] it was 5.55 µM and 9.21 µM; in test [4], 3.71 µM and 4.93 µM; in [5], 11.3 µM and 14.9 µM; in test [6], 2.41 µM and 1.5 µM; in [7] it was 2.38 µM and 6.82 µM. The GI50 was 5.99 µM in [8]; 4.88 µM and 13.8 µM in [9]. For the same compound, the TGI was 17.9 µM and 22.6 µM in test [1]; 22.5 µM and 91.7 µM in [2]; 14.8 µM and 28.1 µM in test [4]; 26.1 µM and 32.9 µM in [5]; 7.39 µM and 9.18 µM in test [6]; 11.4 µM and 29.8 µM in [7]. In addition, the TGI is 19.4 µM in test [8]; 17.5 µM and 30.2 µM in test [9].
Take `O=C1C[C@H]2CC3(CC[C@H]2CN1)OCCO3`: the TGI in test [2], in [4], in test [10], in [5], in test [6] and in test [7] was greater than 100 µM in each case. The TGI in [8] and in test [9] was greater than 100 µM each time.
With `N#Cc1nc2cc(F)c(F)cc2nc1-c1ccc(Cl)cc1`, the GI50 in test [1] is 10.4 µM; in test [2], 0.181 µM; in test [4] it was 1.32 µM; in [5] it was 2.09 µM; in test [6], 6.17 µM; in test [7] it was 12.2 µM. The GI50 in test [8] was 16 µM; in [9] it was 22.1 µM. Also, the TGI in [1] was 43.8 µM; in test [2], 3.12 µM; in [4], 2.68 µM; in test [5], 4.76 µM; in [6], greater than 100 µM; in [7], 38.9 µM. The TGI in test [8] was 50.1 µM; in [9], greater than 58.3 µM.
In the case of `Cc1ccc(N2C(=O)/C(=C/c3ccc(N(CCC#N)CCC#N)cc3C)N=C2c2cc([N+](=O)[O-])ccc2Cl)cc1`, the TGI in test [1], in test [2], in test [10], in test [5], in test [6] and in test [7] was greater than 100 µM in each case. Besides, the TGI in test [8] and in [9] was greater than 100 µM in each case.
For the compound `CC1=C(C(=O)Nc2ccc(F)c(Cl)c2)C(c2cccc(Oc3ccccc3)c2)NC(=O)N1` (centres undefined), the GI50 in [1] was 15.1 µM; in test [2], 10.4 µM; in [4], 15.4 µM; in [5], 18 µM; in test [6], 8.51 µM; in [7] it was 22.1 µM. The GI50 in [8] is 18.2 µM; in test [9] it was 18 µM. For the same compound, the TGI in test [1] was 28.4 µM; in [2], 26.4 µM; in test [4] it was 28.7 µM; in test [5], 43.7 µM; in [6], 26.3 µM; in test [7], 57 µM. The TGI in test [8] worked out at 38.2 µM; in [9] it was 34.9 µM.
